# Reference: patent publication US8530461B2 (Boehringer Ingelheim International GmbH, priority 2011, dated 2013)
# Target: T1, human ACC2 (Homo sapiens, UniProt O00763)
# T1 construct: made in house; host or cells: insect cells (baculoviral expression system)
# Test: ACC2 assay, spectrophotometric 384 well assay (NADH-linked, coupled lactate dehydrogenase/pyruvate kinase)
# Assay type: biochemical
# Conditions: ACC2 assay; human ACC2 construct lacking 128 N-terminal amino acids; 25° C., 340 nm, 15 minutes; read-out: IC50
# Experimental: Spectrophotometric 384 Well Assay
# Malonyl CoA formation by acetyl CoA carboxylases is stoichometrically linked to the consumption of ATP. ACC2 activity is measured in a NADH-linked kinetic method measuring ADP generated during the ACC reaction using a coupled lactate dehydrogenase/pyruvate kinase reaction.
# For biological testing, a human ACC2 construct which lacks the 128 amino acids at the N-terminus for increased solubility (nt 385-6966 in Genbank entry AJ575592) is cloned. The protein is then expressed in insect cells using a baculoviral expression system. Protein purification is performed by anion exchange.
# All compounds are dissolved in dimethyl sulfoxide (DMSO) to a concentration of 10 mM.
# Assay reactions are then carried out in 384-well plates, with hACC2 in an appropriate dilution and at final assay concentrations (f.c.) of 100 mM Tris (pH 7.5), 10 mM trisodium citrate, 25 mM KHCO3, 10 mM MgCl2, 0.5 mg/ml BSA, 3.75 mM reduced L-glutathione, 15 U/ml lactate dehydrogenase, 0.5 mM phosphoenolpyruvate, 15 U/ml pyruvate kinase, compounds at different concentrations at final DMSO concentrations of 1%.
# The enzymatic reaction is then started by addition of a mixture of NADH, acetyl Coenzyme A (both […].) and ATP (500 uM f.c.). The decrease of the optical density (slope S) is then determined at 25° C. at a wavelength of 340 nm over 15 minutes in a spectrophotometric reader.
# Each assay microtiter plate contains wells with vehicle instead of compound as controls for the non-inhibited enzyme (100% CTL; ‘HIGH’) and wells without acetyl-CoA as controls for non-specific NADH degradation (0% CTL; ‘LOW’).
# The slope S is used for calculation of % CTL=(S(compound)−S(‘LOW’))/(S(‘HIGH’)−S(‘LOW’))100. Compounds will give values between 100% CTL (no inhibition) and 0% CTL (complete inhibition).
# For IC50 value determination, the sample slope in the presence of the test compound after subtraction of the low controls (S(compound)−S(‘LOW’)) are used.
# An IC50 value is derived from the compound slopes at different dosages after subtraction of the low controls (S(compound)−S(‘LOW’)) by non-linear regression curve fitting (equation y=(A+((B−A)/(1+((C/x)^D))))).
# T1 sequence (O00763 129-2458 limits assumed): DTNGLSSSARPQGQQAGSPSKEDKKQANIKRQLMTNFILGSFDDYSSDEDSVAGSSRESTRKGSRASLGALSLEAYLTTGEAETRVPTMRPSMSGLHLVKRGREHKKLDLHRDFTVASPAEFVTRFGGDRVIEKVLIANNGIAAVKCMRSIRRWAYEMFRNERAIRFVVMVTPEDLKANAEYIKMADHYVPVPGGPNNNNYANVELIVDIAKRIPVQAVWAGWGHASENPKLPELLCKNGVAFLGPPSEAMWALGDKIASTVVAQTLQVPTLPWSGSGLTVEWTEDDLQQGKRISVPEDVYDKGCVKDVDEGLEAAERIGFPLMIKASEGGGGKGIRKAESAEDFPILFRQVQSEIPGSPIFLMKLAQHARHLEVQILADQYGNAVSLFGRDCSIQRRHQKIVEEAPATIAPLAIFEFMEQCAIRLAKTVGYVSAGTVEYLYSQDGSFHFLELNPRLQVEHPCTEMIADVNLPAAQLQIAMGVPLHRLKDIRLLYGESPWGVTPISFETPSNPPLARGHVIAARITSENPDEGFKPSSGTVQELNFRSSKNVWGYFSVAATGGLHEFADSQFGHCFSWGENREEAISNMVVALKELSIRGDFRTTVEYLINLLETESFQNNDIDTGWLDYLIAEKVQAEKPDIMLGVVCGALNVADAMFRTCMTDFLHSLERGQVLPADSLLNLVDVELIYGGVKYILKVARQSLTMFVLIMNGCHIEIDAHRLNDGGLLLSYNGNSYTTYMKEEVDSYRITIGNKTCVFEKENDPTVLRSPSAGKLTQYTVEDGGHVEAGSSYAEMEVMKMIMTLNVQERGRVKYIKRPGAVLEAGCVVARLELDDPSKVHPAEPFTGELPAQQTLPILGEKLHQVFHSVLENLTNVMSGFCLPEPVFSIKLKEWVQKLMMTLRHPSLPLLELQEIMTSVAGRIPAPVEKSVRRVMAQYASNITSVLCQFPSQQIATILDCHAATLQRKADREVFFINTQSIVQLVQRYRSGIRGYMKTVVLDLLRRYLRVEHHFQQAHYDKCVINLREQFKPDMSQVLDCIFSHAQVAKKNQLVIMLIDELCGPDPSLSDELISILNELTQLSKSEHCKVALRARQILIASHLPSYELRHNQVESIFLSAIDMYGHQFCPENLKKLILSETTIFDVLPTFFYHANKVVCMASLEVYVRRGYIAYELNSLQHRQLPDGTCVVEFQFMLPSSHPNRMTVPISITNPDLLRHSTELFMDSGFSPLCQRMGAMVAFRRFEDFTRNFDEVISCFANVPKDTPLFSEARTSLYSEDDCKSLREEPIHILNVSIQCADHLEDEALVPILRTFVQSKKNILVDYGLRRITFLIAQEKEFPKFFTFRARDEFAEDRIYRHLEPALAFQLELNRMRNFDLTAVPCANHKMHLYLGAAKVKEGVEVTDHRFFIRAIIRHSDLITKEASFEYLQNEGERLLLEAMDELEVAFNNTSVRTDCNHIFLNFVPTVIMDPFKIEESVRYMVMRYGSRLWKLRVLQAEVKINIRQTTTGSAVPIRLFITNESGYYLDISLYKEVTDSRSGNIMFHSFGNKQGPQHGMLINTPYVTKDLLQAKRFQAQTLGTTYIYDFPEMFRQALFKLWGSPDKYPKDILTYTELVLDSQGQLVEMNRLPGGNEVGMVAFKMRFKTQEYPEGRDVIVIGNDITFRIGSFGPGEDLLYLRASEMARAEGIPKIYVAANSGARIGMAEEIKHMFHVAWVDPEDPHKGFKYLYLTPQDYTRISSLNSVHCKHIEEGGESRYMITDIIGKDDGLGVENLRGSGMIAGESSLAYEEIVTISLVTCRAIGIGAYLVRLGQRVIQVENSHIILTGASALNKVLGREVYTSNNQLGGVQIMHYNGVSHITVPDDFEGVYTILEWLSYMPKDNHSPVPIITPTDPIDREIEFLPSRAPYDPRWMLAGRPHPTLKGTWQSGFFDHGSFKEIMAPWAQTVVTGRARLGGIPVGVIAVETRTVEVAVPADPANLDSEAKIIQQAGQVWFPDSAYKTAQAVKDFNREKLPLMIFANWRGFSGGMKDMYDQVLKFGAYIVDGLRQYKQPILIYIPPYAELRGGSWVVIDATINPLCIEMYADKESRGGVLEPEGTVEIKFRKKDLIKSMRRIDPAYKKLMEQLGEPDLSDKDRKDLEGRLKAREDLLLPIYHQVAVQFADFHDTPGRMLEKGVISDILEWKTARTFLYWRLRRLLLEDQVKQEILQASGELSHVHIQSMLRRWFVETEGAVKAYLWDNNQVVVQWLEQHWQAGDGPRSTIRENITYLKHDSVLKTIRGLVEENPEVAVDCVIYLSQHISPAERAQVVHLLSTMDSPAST
row,Structure (SMILES),IC50 [nM]
1,COc1ccc(OC2CN(c3ccc([C@H](C)NC(C)=O)cc3)C2)cn1 [Example 10.32],730
2,C[C@H](NC(=O)N(C)C1CC1)c1ccc(N2CC(Oc3ccc(OCC4CC4)cc3)C2)cc1 [Example 4.17],1130
3,CCOc1ccc(OC2CN(c3ccc([C@H](C)NC(=O)c4cn(C)cn4)cc3)C2)cc1 [Example 1.33],2520
4,CCOc1ccc(OC2CN(c3ccc([C@H](C)NC(=O)C4CCCC4)cc3)C2)cc1 [Example 1.8],550
5,CCOc1ccc(OC2CN(c3ccc([C@H](C)NC(=O)c4c(C)noc4N)cc3)C2)cc1 [Example 1.30],740
6,COc1ccc(OC2CN(c3ccc([C@H](C)NC(=O)C4CC4)cc3)C2)c(F)c1 [Example 10.21],3990
7,CC(=O)N[C@@H](C)c1ccc(N2CC(Oc3cc(C(F)(F)F)ccc3F)C2)cc1 [Example 10.17],110
8,CC(=O)N[C@@H](C)c1ccc(N2CC(Oc3ccc4oc(C)cc4c3)C2)cc1 [Example 10.11],100
9,CC(=O)N[C@@H](C)c1ccc(N2CC(Oc3ccc(OCC4CC4(F)F)cc3)C2)cc1 (stereo partly drawn) [Example 9.5],40
10,CCOc1ccc(OC2CN(c3ccc([C@H](C)NC(=O)c4cnc(C)s4)cc3)C2)cc1 [Example 1.41],1070
11,CCOc1ccc(OC2CN(c3ccc([C@H](C)NC(=O)c4nc(C)sc4C)cc3)C2)cc1 [Example 1.50],1060
12,CC(=O)N[C@@H](C)c1ccc(N2CC(Oc3cccc(C4CCCC4)n3)C2)cc1 [Example 12.13],180
13,C[C@H](NC(=O)c1cncs1)c1ccc(N2CC(Oc3ccc(OCC4CC4)cc3)C2)cc1 [Example 1.90],90
14,CC(=O)N[C@@H](C)c1ccc(N2CC(Oc3cccc(OCC4CC4(F)F)n3)C2)cc1 (stereo partly drawn) [Example 12.18],650
15,CCOc1ccc(OC2CN(c3ccc([C@H](C)NC(=O)c4cc(=O)[nH]cn4)cc3)C2)cc1 [Example 1.45],2010
16,CCOc1ccc(OC2CN(c3ccc([C@H](C)NC(=O)N4CCC4)cc3)C2)cc1 [Example 4.11],2370
17,CCOc1ccc(OC2CN(c3ccc([C@H](C)NC(=O)N4CC(O)C4)cc3)C2)cc1 [Example 4.4],1610
18,CCOc1ccc(OC2CN(c3ccc([C@H](C)NC(=O)N(C)CC)cc3)C2)cc1 [Example 4.9],860
19,CCOc1ccc(OC2CN(c3ccc([C@H](C)NC(=O)c4cnc(NC(C)=O)s4)cc3)C2)cc1 [Example 1.60],320
20,CCOc1ccc(OC2CN(c3ccc([C@H](C)NC(=O)C(C)CC)cc3)C2)cc1 (stereo partly drawn) [Example 1.71],710
21,CC(=O)N[C@@H](C)c1ccc(N2CC(Oc3ccc(OC4CCC4)cc3)C2)cc1 [Example 9.4],40
22,CCOc1c(F)cc(OC2CN(c3ccc([C@H](C)NC(=O)C4CC4)cc3)C2)cc1F [Example 10.30],1560
23,CC(=O)N[C@@H](C)c1ccc(N2CC(Oc3cccc(OC4CCC4)n3)C2)cc1 [Example 12.7],310
24,CCOc1ccc(OC2CN(c3ccc([C@H](C)NC(=O)c4cncc(NC(C)=O)c4)cc3)C2)cc1 [Example 1.78],360
25,"CCOc1ccc(OC2CN(c3ccc([C@H](C)NC(=O)N(C)C)cc3)C2)c(F)c1 [Example 8.1, (S)-3-(1-{4-[3-(4-Ethoxy-2-fluoro-phenoxy)-azetidin-1-yl]-phenyl}-ethyl)-1,1-dimethyl-urea]",250
26,CCOc1ccc(OC2CN(c3ccc([C@H](C)NC(=O)c4cncn4C)cc3)C2)cc1 [Example 1.34],2060
27,CC(=O)N[C@@H](C)c1ccc(N2CC(Oc3cccc(N4CCOCC4)n3)C2)cc1 [Example 12.15],830
28,CC(=O)N[C@@H](C)c1ccc(N2CC(Oc3ccc(-n4cccc4)cc3Cl)C2)cc1 [Example 10.3],910
29,C[C@H](NC(=O)C1CC1)c1ccc(N2CC(Oc3ccc(OCC4CC4)cc3)C2)cc1 [Example 2.7],70
30,CCOc1ccc(OC2CN(c3ccc([C@H](C)NC(=O)c4sc(NC(C)=O)nc4C)cc3)C2)cc1 [Example 1.32],50
